Laboratory results as given in the NIST ThermoML archive (doi:10.1016/j.fluid.2015.10.026).

Settings: Liquid, Brillouin light scattering

CCOC(C)(C)C [2-ethoxy-2-methylpropane]
Settings | speed of sound [m/s]
293.15 K, 10 kPa | 1059.2
293.15 K, 1000 kPa | 1060.3
293.15 K, 2500 kPa | 1070.5
293.15 K, 4000 kPa | 1080.8
293.15 K, 5500 kPa | 1091.1
293.15 K, 7000 kPa | 1101.5
293.15 K, 8500 kPa | 1111.9
293.15 K, 10000 kPa | 1122.4
303.15 K, 10 kPa | 1013
303.15 K, 1000 kPa | 1019.4
303.15 K, 2500 kPa | 1030.3
303.15 K, 4000 kPa | 1041.2
303.15 K, 5500 kPa | 1052
303.15 K, 7000 kPa | 1062.8
303.15 K, 8500 kPa | 1073.5
303.15 K, 10000 kPa | 1084.2
313.15 K, 10 kPa | 967.71
313.15 K, 1000 kPa | 978.21
313.15 K, 2500 kPa | 989.92
313.15 K, 4000 kPa | 1001.5
313.15 K, 5500 kPa | 1012.9
313.15 K, 7000 kPa | 1024.2
313.15 K, 8500 kPa | 1035.3
313.15 K, 10000 kPa | 1046.3
323.15 K, 20 kPa | 923.32
323.15 K, 1000 kPa | 936.6
323.15 K, 2500 kPa | 949.23
323.15 K, 4000 kPa | 961.61
323.15 K, 5500 kPa | 973.77
323.15 K, 7000 kPa | 985.68
323.15 K, 8500 kPa | 997.36
323.15 K, 10000 kPa | 1008.8
333.15 K, 40 kPa | 879.69
333.15 K, 1000 kPa | 894.61
333.15 K, 2500 kPa | 908.27
333.15 K, 4000 kPa | 921.59
333.15 K, 5500 kPa | 934.59
333.15 K, 7000 kPa | 947.25
333.15 K, 8500 kPa | 959.59
333.15 K, 10000 kPa | 971.59
343.15 K, 60 kPa | 836.71
343.15 K, 1000 kPa | 852.23
343.15 K, 2500 kPa | 867.04
343.15 K, 4000 kPa | 881.42
343.15 K, 5500 kPa | 895.38
343.15 K, 7000 kPa | 908.92
343.15 K, 8500 kPa | 922.03
343.15 K, 10000 kPa | 934.71
353.15 K, 90 kPa | 794.25
353.15 K, 1000 kPa | 809.46
353.15 K, 2500 kPa | 825.54
353.15 K, 4000 kPa | 841.11
353.15 K, 5500 kPa | 856.15
353.15 K, 7000 kPa | 870.68
353.15 K, 8500 kPa | 884.68
353.15 K, 10000 kPa | 898.16
363.15 K, 130 kPa | 752.18
363.15 K, 1000 kPa | 766.3
363.15 K, 2500 kPa | 783.78
363.15 K, 4000 kPa | 800.64
363.15 K, 5500 kPa | 816.89
363.15 K, 7000 kPa | 832.52
363.15 K, 8500 kPa | 847.54
363.15 K, 10000 kPa | 861.94
373.15 K, 180 kPa | 710.37
373.15 K, 1000 kPa | 722.76
373.15 K, 2500 kPa | 741.75
373.15 K, 4000 kPa | 760.03
373.15 K, 5500 kPa | 777.6
373.15 K, 7000 kPa | 794.46
373.15 K, 8500 kPa | 810.61
373.15 K, 10000 kPa | 826.04
383.15 K, 250 kPa | 668.66
383.15 K, 1000 kPa | 678.84
383.15 K, 2500 kPa | 699.46
383.15 K, 4000 kPa | 719.28
383.15 K, 5500 kPa | 738.29
383.15 K, 7000 kPa | 756.49
383.15 K, 8500 kPa | 773.88
383.15 K, 10000 kPa | 790.47
393.15 K, 340 kPa | 626.87
393.15 K, 1000 kPa | 634.52
393.15 K, 2500 kPa | 656.9
393.15 K, 4000 kPa | 678.37
393.15 K, 5500 kPa | 698.94
393.15 K, 7000 kPa | 718.61
393.15 K, 8500 kPa | 737.37
393.15 K, 10000 kPa | 755.23
403.15 K, 440 kPa | 584.83
403.15 K, 1000 kPa | 589.82
403.15 K, 2500 kPa | 614.07
403.15 K, 4000 kPa | 637.32
403.15 K, 5500 kPa | 659.57
403.15 K, 7000 kPa | 680.82
403.15 K, 8500 kPa | 701.07
403.15 K, 10000 kPa | 720.33
413.15 K, 570 kPa | 542.3
413.15 K, 1000 kPa | 544.74
413.15 K, 2500 kPa | 570.98
413.15 K, 4000 kPa | 596.12
413.15 K, 5500 kPa | 620.17
413.15 K, 7000 kPa | 643.12
413.15 K, 8500 kPa | 664.98
413.15 K, 10000 kPa | 685.74
423.15 K, 730 kPa | 499.06
423.15 K, 2500 kPa | 527.62
423.15 K, 4000 kPa | 554.78
423.15 K, 5500 kPa | 580.74
423.15 K, 7000 kPa | 605.52
423.15 K, 8500 kPa | 629.1
423.15 K, 10000 kPa | 651.49
